Measurements from patent US8669288B2, “Lysine salts of 4-((phenoxyalkyl)thio)-phenoxyacetic acid derivatives” (Janssen Pharmaceutica N.V., priority 2005, dated 2014).
Counter-ions that a name gives are not always drawn.

Tests used:
Assay type in all cases: physicochemical
[1] = Solubility in distilled water
[2] = pKa
[3] = DVS isotherm, cycling humidity 0-90% RH; details: 25° C., 0-90% RH in 10% RH increments
Experimental: The non-hydrate, L-lysine salt of the compound of formula (Ia) was subjected to cycling humidity conditions, with results as shown in FIG. 3. More specifically, the sample was analyzed through a full cycle in step mode at 25° C., from 0-90% RH (relative humidity) in 10% RH increments. The equilibration conditions set were as follows: dm/dt of 0.0007; dm/dt window of 5 mins; minimum and maximum stages of 15 and 360 minutes. Data was collected in 1 minute intervals. Nitrogen was used as the carrier gas.

Row | SMILES | solubility ([1]; pH 7.4, water) [µg/mL] | solubility ([1]; water, pH 2.0) [µg/mL] | pKa [2] | Form conversion under cycling humidity conditions [3]
1 | CCO[C@H](COc1ccc(C(F)(F)F)cc1)CSc1ccc(OCC(=O)O)c(C)c1 [Compound of formula (la), (R)-{4-[2-Ethoxy-3-(4-trifluoromethyl-phenoxy)-propylsulfanyl]-2-methyl-phenoxy}-acetic acid] | ~1000 | < 2 | 3.63 | –
2 | CCO[C@H](COc1ccc(C(F)(F)F)cc1)CSc1ccc(OCC(=O)O)c(C)c1 [{4-[2-Ethoxy-3-(4-trifluoromethyl-phenoxy)-propylsulfanyl]-2-methyl-phenoxy}-acetic acid L-Lysine non-hydrate salt] | – | – | – | reversibly converts to the corresponding di-hydrate form by absorbing water
